PubChem BioAssay AID2060882 (Molecular Pharmacology Branch, DTP, NCI, 2025)

Test system: 898857-211-R-J1-PDC complex spheroids, growth % test/control
Experiment: Anticancer human tumor 898857-211-R-J1-PDC patient-derived melanoma cell line growth inhibition [RAS]
Details: for IC50: curve of first compound; for viability, T/C: stronger effect = lower value
Procedure, shortened: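 Multi-cell-type spheroids: tumor cells plus HUVEC endothelial cells and mesenchymal stem cells. RAS-pathway inhibitors were combined with targeted agents, each dosed in half-log steps down from clinical Cmax, or from 10 microM when Cmax was unknown.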

[1] = second compound 0.000949 µM, first compound 0.0316 µM
[2] = second compound 0.000949 µM, first compound 0.1 µM
[3] = second compound 0.000949 µM, first compound 0.316 µM
[4] = second compound 0.000949 µM, first compound 1 µM
[5] = second compound 0.000949 µM, first compound 3.16 µM
[6] = second compound 0.000949 µM, first compound 10 µM
[7] = second compound 0.003 µM, first compound 0.0316 µM
[8] = second compound 0.003 µM, first compound 0.1 µM
[9] = second compound 0.003 µM, first compound 0.316 µM
[10] = second compound 0.003 µM, first compound 1 µM
[11] = second compound 0.003 µM, first compound 3.16 µM
[12] = second compound 0.003 µM, first compound 10 µM
[13] = second compound 0.00949 µM, first compound 0.0316 µM
[14] = second compound 0.00949 µM, first compound 0.1 µM
[15] = second compound 0.00949 µM, first compound 0.316 µM
[16] = second compound 0.00949 µM, first compound 1 µM
[17] = second compound 0.00949 µM, first compound 3.16 µM
[18] = second compound 0.00949 µM, first compound 10 µM
[19] = second compound 0.03 µM, first compound 0.0316 µM
[20] = second compound 0.03 µM, first compound 0.1 µM
[21] = second compound 0.03 µM, first compound 0.316 µM
[22] = second compound 0.03 µM, first compound 1 µM
[23] = second compound 0.03 µM, first compound 3.16 µM
[24] = second compound 0.03 µM, first compound 10 µM
[25] = second compound 0.0949 µM, first compound 0.0316 µM
[26] = second compound 0.0949 µM, first compound 0.1 µM
[27] = second compound 0.0949 µM, first compound 0.316 µM
[28] = second compound 0.0949 µM, first compound 1 µM
[29] = second compound 0.0949 µM, first compound 3.16 µM
[30] = second compound 0.0949 µM, first compound 10 µM
[31] = second compound 0.3 µM, first compound 0.0316 µM
[32] = second compound 0.3 µM, first compound 0.1 µM
[33] = second compound 0.3 µM, first compound 0.316 µM
[34] = second compound 0.3 µM, first compound 1 µM
[35] = second compound 0.3 µM, first compound 3.16 µM
[36] = second compound 0.3 µM, first compound 10 µM
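Note: spheroids exposed to compound for seven days before readout.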
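Throughout, for viability, T/C: 100% = DMSO vehicle control wells.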

Compound CCC(CC)c1cc(NC2CCC(N)C2)n2nccc2n1 (stereo unspecified) + CCn1c(-c2cc(N3CCN(C)CC3)cnc2C(C)OC)c2c3cc(ccc31)-c1csc(n1)CC(NC(=O)C1CC1C)C(=O)N1CCCC(N1)C(=O)OCC(C)(C)C2 has an IC50 (second compound 0.000949 µM) of 0.594 µM, an IC50 (second compound 0.003 µM) of 0.589 µM and an IC50 (second compound 0.00949 µM) of 0.609 µM. For the same compound, the IC50 (second compound 0.03 µM) was 0.571 µM, the IC50 (second compound 0.0949 µM) was 0.615 µM and the IC50 (second compound 0.3 µM) was 0.604 µM. It also gave a viability, T/C [1] of 113%, a viability, T/C [2] of 100% and a viability, T/C [3] of 87.1%. It also gave a viability, T/C [4] of 19.7%, a viability, T/C [5] of 0.45% and a viability, T/C [6] of 0.75%. It also gave a viability, T/C [7] of 95.1%, a viability, T/C [8] of 94% and a viability, T/C [9] of 82%. The viability, T/C [10] was 22.8%, the viability, T/C [11] was 0.27% and the viability, T/C [12] was 0.25%. It also gave a viability, T/C [13] of 92.2%, a viability, T/C [14] of 105% and a viability, T/C [15] of 84.4%. It also gave a viability, T/C [16] of 23.6%, a viability, T/C [17] of 0.8% and a viability, T/C [18] of 0.2%. For the same compound, the viability, T/C [19] was 102%, the viability, T/C [20] was 89.5% and the viability, T/C [21] was 80.9%. It also gave a viability, T/C [22] of 21.2%, a viability, T/C [23] of 0.38% and a viability, T/C [24] of 0.27%. For the same compound, the viability, T/C [25] was 109%, the viability, T/C [26] was 102% and the viability, T/C [27] was 86.3%. For the same compound, the viability, T/C [28] was 23.8%, the viability, T/C [29] was 0.81% and the viability, T/C [30] was 0.19%. It also gave a viability, T/C [31] of 104%, a viability, T/C [32] of 105% and a viability, T/C [33] of 84.8%. It also gave a viability, T/C [34] of 22.9%, a viability, T/C [35] of 0.32% and a viability, T/C [36] of 0.26%.
For CC(C)NCC(C(=O)N1CCN(c2ncnc3c2C(C)CC3O)CC1)c1ccc(Cl)cc1 (stereo unspecified) + C#Cc1c(F)ccc2cc(O)cc(-c3ncc4c(N5CC6CCC(C5)N6)nc(OCC56CCCN5CC(F)C6)nc4c3F)c12, the IC50 (second compound 0.0316 µM) was > 10 µM, the IC50 (second compound 0.1 µM) was > 10 µM and the IC50 (second compound 0.316 µM) was > 10 µM. The IC50 (second compound 1 µM) was > 10 µM, the IC50 (second compound 3.16 µM) was > 10 µM and the IC50 (second compound 10 µM) was 0.132 µM. The viability, T/C (second compound 0.0316 µM, first compound 0.0316 µM) was 100%, the viability, T/C (second compound 0.0316 µM, first compound 0.1 µM) was 89.4% and the viability, T/C (second compound 0.0316 µM, first compound 0.316 µM) was 103%. The viability, T/C (second compound 0.0316 µM, first compound 1 µM) was 80.8%, the viability, T/C (second compound 0.0316 µM, first compound 3.16 µM) was 73.6% and the viability, T/C (second compound 0.0316 µM, first compound 10 µM) was 67.6%. It also gave a viability, T/C (second compound 0.1 µM, first compound 0.0316 µM) of 116%, a viability, T/C (second compound 0.1 µM, first compound 0.1 µM) of 104% and a viability, T/C (second compound 0.1 µM, first compound 0.316 µM) of 98.5%. It also gave a viability, T/C (second compound 0.1 µM, first compound 1 µM) of 88.2%, a viability, T/C (second compound 0.1 µM, first compound 3.16 µM) of 85.2% and a viability, T/C (second compound 0.1 µM, first compound 10 µM) of 61.4%. For the same compound, the viability, T/C (second compound 0.316 µM, first compound 0.0316 µM) was 101%, the viability, T/C (second compound 0.316 µM, first compound 0.1 µM) was 103% and the viability, T/C (second compound 0.316 µM, first compound 0.316 µM) was 104%. It also gave a viability, T/C (second compound 0.316 µM, first compound 1 µM) of 83.4%, a viability, T/C (second compound 0.316 µM, first compound 3.16 µM) of 70.8% and a viability, T/C (second compound 0.316 µM, first compound 10 µM) of 55.2%. It also gave a viability, T/C (second compound 1 µM, first compound 0.0316 µM) of 99.9%, a viability, T/C (second compound 1 µM, first compound 0.1 µM) of 95.8% and a viability, T/C (second compound 1 µM, first compound 0.316 µM) of 104%. It also gave a viability, T/C (second compound 1 µM, first compound 1 µM) of 92%, a viability, T/C (second compound 1 µM, first compound 3.16 µM) of 74.7% and a viability, T/C (second compound 1 µM, first compound 10 µM) of 61%. It also gave a viability, T/C (second compound 3.16 µM, first compound 0.0316 µM) of 102%, a viability, T/C (second compound 3.16 µM, first compound 0.1 µM) of 95.9% and a viability, T/C (second compound 3.16 µM, first compound 0.316 µM) of 109%. It also gave a viability, T/C (second compound 3.16 µM, first compound 1 µM) of 92.7%, a viability, T/C (second compound 3.16 µM, first compound 3.16 µM) of 78.1% and a viability, T/C (second compound 3.16 µM, first compound 10 µM) of 52%. It also gave a viability, T/C (second compound 10 µM, first compound 0.0316 µM) of 54.3%, a viability, T/C (second compound 10 µM, first compound 0.1 µM) of 59.4% and a viability, T/C (second compound 10 µM, first compound 0.316 µM) of 38.5%. The viability, T/C (second compound 10 µM, first compound 1 µM) was 33.8%, the viability, T/C (second compound 10 µM, first compound 3.16 µM) was 27.5% and the viability, T/C (second compound 10 µM, first compound 10 µM) was 8.24%.
In the case of CC(Nc1ccc2c(c1)OCCn1cc(N3C(=O)OCC3C(F)F)nc1-2)C(N)=O (stereo unspecified) + CCn1c(-c2cc(N3CCN(C)CC3)cnc2C(C)OC)c2c3cc(ccc31)-c1csc(n1)CC(NC(=O)C1CC1C)C(=O)N1CCCC(N1)C(=O)OCC(C)(C)C2, the IC50 (second compound 0.000949 µM) is reported as > 10 µM, the IC50 (second compound 0.003 µM) is reported as > 10 µM and the IC50 (second compound 0.00949 µM) is reported as 6.62 µM. The IC50 (second compound 0.03 µM) was 9.25 µM, the IC50 (second compound 0.0949 µM) was 9.6 µM and the IC50 (second compound 0.3 µM) was 8.39 µM. For the same compound, the viability, T/C [1] was 102%, the viability, T/C [2] was 90.3% and the viability, T/C [3] was 96%. It also gave a viability, T/C [4] of 73.8%, a viability, T/C [5] of 66% and a viability, T/C [6] of 53.2%. It also gave a viability, T/C [7] of 93.4%, a viability, T/C [8] of 95.7% and a viability, T/C [9] of 83.6%. For the same compound, the viability, T/C [10] was 76.4%, the viability, T/C [11] was 73.3% and the viability, T/C [12] was 52.2%. For the same compound, the viability, T/C [13] was 82.5%, the viability, T/C [14] was 80.4% and the viability, T/C [15] was 80.2%. It also gave a viability, T/C [16] of 73.5%, a viability, T/C [17] of 63% and a viability, T/C [18] of 42.7%. It also gave a viability, T/C [19] of 103%, a viability, T/C [20] of 91.5% and a viability, T/C [21] of 80.9%. For the same compound, the viability, T/C [22] was 72.6%, the viability, T/C [23] was 68.5% and the viability, T/C [24] was 45.5%. It also gave a viability, T/C [25] of 106%, a viability, T/C [26] of 85.1% and a viability, T/C [27] of 95.3%. For the same compound, the viability, T/C [28] was 80.5%, the viability, T/C [29] was 67.8% and the viability, T/C [30] was 48.1%. The viability, T/C [31] was 98.3%, the viability, T/C [32] was 99.3% and the viability, T/C [33] was 84.2%. It also gave a viability, T/C [34] of 71.7%, a viability, T/C [35] of 66.1% and a viability, T/C [36] of 46.4%.
